Patent publication US11325907B2, “Crystal form of 1H-imidazo[4,5-b]pyridine-2(3H)-one compound and preparation process therefor” (MEDSHINE DISCOVERY INC., priority 2018, dated 2022)

Legend:
Assay type in all cases: physicochemical
[1] = Solid stability test under long-term conditions (25° C./Relative Humidity 60%, sealed)
Method: (§1) Content Determination Method
(§2) Device: Agilent 1260 High Performance Liquid Chromatograph with DAD detector or Shimadzu LC-20A High Performance Liquid Chromatograph with PDA detector
(§3) Detailed Chromatographic parameters are as follows:
(§4) Chromatographic column: Agilent Eclipse plus C18 (4.6 mm×150 mm, 3.5 μm)
(§5) Column temperature: 40° C.
(§6) Detecting wavelength: 230 nm
(§7) Mobile Phase A: 0.04% trifluoroacetic acid aqueous solution (V/V)
(§8) Mobile Phase B: acetonitrile
(§9) Diluent: acetonitrile: purified water=3:1 (v/v)
(§10) Probe Wash: acetonitrile: purified water=3:1 (v/v)
(§11) Gradient elution procedure: […]
Each layer of the low-density polyethylene bag was buckled and sealed respectively and then the bag was placed in an aluminum foil bag and heat-sealed. The samples were taken on the 3rd, 6th, 9th, 12th and 18th months for testing and the test results were compared with the initial test results of day 0.

[2] = Hygroscopicity test (Dynamic Vapor Sorption); details: 25° C. and 80% RH, DVS
Method: Device: SEM Advantage-1 Dynamic Vapor Sorption apparatus
Testing conditions: The sample (10-20 mg) is placed in DVS sample disk for testing.
Balance: dm/dt=0.01%/min (min: 10 min, max: 180 min)
Drying: drying at 0% RH for 120 min
RH (%) testing gradient: 10%
RH (%) testing gradient range: 0% -90%-0%
The hygroscopicity is categorized as follows:
SEM DVS Advantage-1 Dynamic Vapor Sorption instrument

[3] = Stability tests of Crystal Form A in different solvents; details: for Status (after 2 days): 50 mg, stirred at 40° C. for 2 days
Method: The solids in all samples were collected and dried in vacuum drying oven (40° C.) overnight. The crystal forms were tested for XRPD.

[4] = Solid stability test under accelerated conditions (40° C./Relative Humidity 75%, sealed)
Method: as §1, §2, §3, §4, §5, §6, §7, §8, §9, §10, §11
Each layer of the low-density polyethylene bag was buckled and sealed respectively and then the bag was placed in an aluminum foil bag and heat-sealed. The samples were taken on the 1st, 2nd, 3rd and 6th months for testing, and the test results were compared with the initial test results of day 0.

[5] = as above; details: 6th month
[6] = Batch 1, 25° C./Relative Humidity 60%, Sealed, 3rd month
[7] = Batch 1, 25° C./Relative Humidity 60%, Sealed, 6th month
[8] = Batch 1, 25° C./Relative Humidity 60%, Sealed, 9th month
[9] = Batch 1, 25° C./Relative Humidity 60%, Sealed, 12th month
[10] = Batch 1, 25° C./Relative Humidity 60%, Sealed, 18th month
[11] = Batch 2, 25° C./Relative Humidity 60%, Sealed, 3rd month
[12] = Batch 2, 25° C./Relative Humidity 60%, Sealed, 6th month
[13] = Batch 2, 25° C./Relative Humidity 60%, Sealed, 9th month
[14] = Batch 2, 25° C./Relative Humidity 60%, Sealed, 12th month
[15] = Batch 2, 25° C./Relative Humidity 60%, Sealed, 18th month
[16] = Batch 3, 25° C./Relative Humidity 60%, Sealed, 3rd month
[17] = Batch 3, 25° C./Relative Humidity 60%, Sealed, 6th month
[18] = Batch 3, 25° C./Relative Humidity 60%, Sealed, 9th month
[19] = Batch 3, 25° C./Relative Humidity 60%, Sealed, 12th month
[20] = Batch 3, 25° C./Relative Humidity 60%, Sealed, 18th month
[21] = Batch 1, 40° C./Relative Humidity 75%, Sealed, 1st month
[22] = Batch 1, 40° C./Relative Humidity 75%, Sealed, 2nd month
[23] = Batch 1, 40° C./Relative Humidity 75%, Sealed, 3rd month
[24] = Batch 1, 40° C./Relative Humidity 75%, Sealed, 6th month
[25] = Batch 2, 40° C./Relative Humidity 75%, Sealed, 1st month
[26] = Batch 2, 40° C./Relative Humidity 75%, Sealed, 2nd month
[27] = Batch 2, 40° C./Relative Humidity 75%, Sealed, 3rd month
[28] = Batch 2, 40° C./Relative Humidity 75%, Sealed, 6th month
[29] = Batch 3, 40° C./Relative Humidity 75%, Sealed, 1st month
[30] = Batch 3, 40° C./Relative Humidity 75%, Sealed, 2nd month
[31] = Batch 3, 40° C./Relative Humidity 75%, Sealed, 3rd month
[32] = Batch 3, 40° C./Relative Humidity 75%, Sealed, 6th month
[33] = Batch 1, 40° C./Relative Humidity 75%
[34] = Batch 3, 40° C./Relative Humidity 75%

CCOc1cc([C@@H](CS(C)(=O)=O)n2c(=O)[nH]c3c(C)c(-c4ccccc4F)cnc32)ccc1OC [Crystal Form A of Compound 1]
Appearance [1, 6]: White powder
Content [1, 6]: 99.0%
Total Impurity [1, 6]: 0.09%
Appearance [1, 7]: White powder
Content [1, 7]: 101.4%
Crystal Form (XRPD) [1, 7]: Crystal Form A
Total Impurity [1, 7]: 0.09%
Appearance [1, 8]: White powder
Content [1, 8]: 99.6%
Total Impurity [1, 8]: 0.09%
Appearance [1, 9]: White powder
Content [1, 9]: 98.8%
Crystal Form (XRPD) [1, 9]: Crystal Form A
Total Impurity [1, 9]: 0.08%
Appearance [1, 10]: White powder
Content [1, 10]: 97.3%
Total Impurity [1, 10]: 0.10%
Appearance ([1]; Batch 1, Day 0): White powder
Content ([1]; Batch 1, Day 0): 99.4%
Crystal Form (XRPD) ([1]; Batch 1, Day 0): Crystal Form A
Total Impurity ([1]; Batch 1, Day 0): 0.09%
Appearance [1, 11]: White powder
Content [1, 11]: 100.5%
Total Impurity [1, 11]: 0.11%
Appearance [1, 12]: White powder
Content [1, 12]: 100.1%
Crystal Form (XRPD) [1, 12]: Crystal Form A
Total Impurity [1, 12]: 0.12%
Appearance [1, 13]: White powder
Content [1, 13]: 99.6%
Total Impurity [1, 13]: 0.11%
Appearance [1, 14]: White powder
Content [1, 14]: 98.2%
Crystal Form (XRPD) [1, 14]: Crystal Form A
Total Impurity [1, 14]: 0.09%
Appearance [1, 15]: White powder
Content [1, 15]: 99.1%
Total Impurity [1, 15]: 0.11%
Appearance ([1]; Batch 2, Day 0): White powder
Content ([1]; Batch 2, Day 0): 99.4%
Crystal Form (XRPD) ([1]; Batch 2, Day 0): Crystal Form A
Total Impurity ([1]; Batch 2, Day 0): 0.10%
Appearance [1, 16]: White powder
Content [1, 16]: 98.9%
Total Impurity [1, 16]: 0.16%
Appearance [1, 17]: White powder
Content [1, 17]: 98.5%
Crystal Form (XRPD) [1, 17]: Crystal Form A
Total Impurity [1, 17]: 0.12%
Appearance [1, 18]: White powder
Content [1, 18]: 99.2%
Total Impurity [1, 18]: 0.11%
Appearance [1, 19]: White powder
Content [1, 19]: 98.4%
Crystal Form (XRPD) [1, 19]: Crystal Form A
Total Impurity [1, 19]: 0.10%
Appearance [1, 20]: White powder
Content [1, 20]: 99.7%
Total Impurity [1, 20]: 0.17%
Appearance ([1]; Batch 3, Day 0): White powder
Content ([1]; Batch 3, Day 0): 99.5%
Crystal Form (XRPD) ([1]; Batch 3, Day 0): Crystal Form A
Total Impurity ([1]; Batch 3, Day 0): 0.11%
Solid stability (conclusion) ([1]; long-term conditions of 25° C./Relative Humidity 60%): good stability
Hygroscopic Category [2]: no or little hygroscopicity
ΔW (hygroscopic weight gain) [2]: 0.08%
Status (after 2 days) ([3]; Acetone 0.4 mL): Suspension
Status (after 2 days) ([3]; Acetone:Water (1:2) 0.4 mL): Suspension
Status (after 2 days) ([3]; Acetonitrile 0.4 mL): Suspension
Status (after 2 days) ([3]; Acetonitrile:Water (1:1) 0.4 mL): Suspension
Status (after 2 days) ([3]; Ethanol 0.4 mL): Suspension
Status (after 2 days) ([3]; Ethanol:Water (3:1) 0.4 mL): Suspension
Status (after 2 days) ([3]; Ethyl Acetate 0.4 mL): Suspension
Status (after 2 days) ([3]; Methanol 0.4 mL): Suspension
Status (after 2 days) ([3]; Methanol:Water (3:1) 0.4 mL): Suspension
Status (after 2 days) ([3]; Tetrahydrofuran 0.3 mL): Suspension
Stability in solvents (conclusion) ([3]; alcohol solvent, acetonitrile, acetone, ethyl acetate, tetrahydrofuran and mixed solvents with water): good stability
Appearance [4, 21]: White powder
Content [4, 21]: 99.3%
Total Impurity [4, 21]: 0.09%
Appearance [4, 22]: White powder
Content [4, 22]: 99.1%
Total Impurity [4, 22]: 0.09%
Appearance [4, 23]: White powder
Content [4, 23]: 99.5%
Total Impurity [4, 23]: 0.09%
Content [4, 24]: 100.1%
Total Impurity [4, 24]: 0.10%
Appearance ([4]; Batch 1, Day 0): White powder
Content ([4]; Batch 1, Day 0): 99.4%
Crystal Form (XRPD) ([4]; Batch 1, Day 0): Crystal Form A
Total Impurity ([4]; Batch 1, Day 0): 0.09%
Appearance [4, 25]: White powder
Content [4, 25]: 99.1%
Total Impurity [4, 25]: 0.11%
Appearance [4, 26]: White powder
Content [4, 26]: 99.0%
Total Impurity [4, 26]: 0.11%
Appearance [4, 27]: White powder
Content [4, 27]: 99.2%
Total Impurity [4, 27]: 0.10%
Appearance [4, 28]: White powder
Content [4, 28]: 100.5%
Crystal Form (XRPD) [4, 28]: Crystal Form A
Total Impurity [4, 28]: 0.12%
Appearance ([4]; Batch 2, Day 0): White powder
Content ([4]; Batch 2, Day 0): 99.4%
Crystal Form (XRPD) ([4]; Batch 2, Day 0): Crystal Form A
Total Impurity ([4]; Batch 2, Day 0): 0.10%
Appearance [4, 29]: White powder
Content [4, 29]: 98.8%
Total Impurity [4, 29]: 0.16%
Appearance [4, 30]: White powder
Content [4, 30]: 98.9%
Total Impurity [4, 30]: 0.16%
Appearance [4, 31]: White powder
Content [4, 31]: 99.2%
Total Impurity [4, 31]: 0.16%
Content [4, 32]: 100.0%
Total Impurity [4, 32]: 0.11%
Appearance ([4]; Batch 3, Day 0): White powder
Content ([4]; Batch 3, Day 0): 99.5%
Crystal Form (XRPD) ([4]; Batch 3, Day 0): Crystal Form A
Total Impurity ([4]; Batch 3, Day 0): 0.11%
Solid stability (conclusion) ([4]; accelerated conditions of 40° C./Relative Humidity 75%): good stability
Appearance [5, 33]: White powder
Crystal Form (XRPD) [5, 33]: Crystal Form A
Appearance [5, 34]: White powder
Crystal Form (XRPD) [5, 34]: Crystal Form A
